Measured values reported in patent US11717508B2, “Compounds, compositions, and methods for inhibiting bacterial growth” (priority 2016, dated 2023).
Read-outs that look alike come from different tables or passages of the source.

Tested on: DosRST regulon
Type: cell-based
Details: for WT DMSO/WT HC102A Fold change / log2 Fold change: upregulated
[1] = Rv2626c, WT Mtb treated with HC102A compared to DMSO
[2] = Rv2627c, WT Mtb treated with HC102A compared to DMSO
[3] = Rv2628, WT Mtb treated with HC102A compared to DMSO
[4] = Rv2629, WT Mtb treated with HC102A compared to DMSO
[5] = Rv2630, WT Mtb treated with HC102A compared to DMSO
[6] = Rv2631, WT Mtb treated with HC102A compared to DMSO
[7] = Rv3083, WT Mtb treated with HC102A compared to DMSO
[8] = Rv3084 lipR, WT Mtb treated with HC102A compared to DMSO
[9] = Rv3085, WT Mtb treated with HC102A compared to DMSO
[10] = Rv3127, WT Mtb treated with HC102A compared to DMSO
[11] = Rv3130c, WT Mtb treated with HC102A compared to DMSO
[12] = Rv3131, WT Mtb treated with HC102A compared to DMSO
[13] = Rv3132c, WT Mtb treated with HC102A compared to DMSO
[14] = Rv3133c, WT Mtb treated with HC102A compared to DMSO
[15] = Rv3134c, WT Mtb treated with HC102A compared to DMSO
[16] = Rv3839, WT Mtb treated with HC102A compared to DMSO
[17] = WT Mtb treated with HC102A compared to DMSO
[18] = WT Mtb treated with HC102A, replicate 1
[19] = WT Mtb treated with HC102A, replicate 2

C[C@@H]1CC(C)(C)C[C@]2(C1)NC(=O)NC2=O (racemic) [HC102A, 7,7,9-trimethyl-1,3-diazaspiro[4.5]decane-2,4-dione]
log2 Fold change, gene MT2700 (Rv2625c, WT Mtb treated with HC102A compared to DMSO): −5.149
Counts per million (CPM) WT_HC102A1, gene MT2700 (Rv2625c, WT Mtb treated with HC102A, replicate 1): 146.1 CPM
Counts per million (CPM) WT_HC102A2, gene MT2700 (Rv2625c, WT Mtb treated with HC102A, replicate 2): 111.9 CPM
Fold change, gene MT2701 [1]: 0.04398
log2 Fold change, gene MT2701 [1]: −4.507
Counts per million (CPM) WT_HC102A1, gene MT2701 (Rv2626c, WT Mtb treated with HC102A, replicate 1): 447.5 CPM
Counts per million (CPM) WT_HC102A2, gene MT2701 (Rv2626c, WT Mtb treated with HC102A, replicate 2): 554.5 CPM
Fold change, gene MT2702 [2]: 0.01981
log2 Fold change, gene MT2702 [2]: −5.658
Counts per million (CPM) WT_HC102A1, gene MT2702 (Rv2627c, WT Mtb treated with HC102A, replicate 1): 101.3 CPM
Counts per million (CPM) WT_HC102A2, gene MT2702 (Rv2627c, WT Mtb treated with HC102A, replicate 2): 156.7 CPM
Fold change, gene MT2703 [3]: 0.03499
log2 Fold change, gene MT2703 [3]: −4.837
Counts per million (CPM) WT_HC102A1, gene MT2703 (Rv2628, WT Mtb treated with HC102A, replicate 1): 20.64 CPM
Counts per million (CPM) WT_HC102A2, gene MT2703 (Rv2628, WT Mtb treated with HC102A, replicate 2): 33.42 CPM
Fold change, gene MT2704 [4]: 0.09873
log2 Fold change, gene MT2704 [4]: −3.34
Counts per million (CPM) WT_HC102A1, gene MT2704 (Rv2629, WT Mtb treated with HC102A, replicate 1): 540.6 CPM
Counts per million (CPM) WT_HC102A2, gene MT2704 (Rv2629, WT Mtb treated with HC102A, replicate 2): 660.1 CPM
Fold change, gene MT2705 [5]: 0.0994
log2 Fold change, gene MT2705 [5]: −3.331
Counts per million (CPM) WT_HC102A1, gene MT2705 (Rv2630, WT Mtb treated with HC102A, replicate 1): 71.28 CPM
Counts per million (CPM) WT_HC102A2, gene MT2705 (Rv2630, WT Mtb treated with HC102A, replicate 2): 56.05 CPM
Fold change, gene MT2707 [6]: 0.1179
log2 Fold change, gene MT2707 [6]: −3.085
Counts per million (CPM) WT_HC102A1, gene MT2707 (Rv2631, WT Mtb treated with HC102A, replicate 1): 110.9 CPM
Counts per million (CPM) WT_HC102A2, gene MT2707 (Rv2631, WT Mtb treated with HC102A, replicate 2): 72.59 CPM
Fold change, gene MT3168 [7]: 0.2851
log2 Fold change, gene MT3168 [7]: −1.81
Counts per million (CPM) WT_HC102A1, gene MT3168 (Rv3083, WT Mtb treated with HC102A, replicate 1): 100.3 CPM
Counts per million (CPM) WT_HC102A2, gene MT3168 (Rv3083, WT Mtb treated with HC102A, replicate 2): 66.84 CPM
Fold change, gene MT3169 [8]: 0.2724
log2 Fold change, gene MT3169 [8]: −1.876
Counts per million (CPM) WT_HC102A1, gene MT3169 (Rv3084 lipR, WT Mtb treated with HC102A, replicate 1): 16.74 CPM
Counts per million (CPM) WT_HC102A2, gene MT3169 (Rv3084 lipR, WT Mtb treated with HC102A, replicate 2): 9.205 CPM
Fold change, gene MT3170 [9]: 0.3224
log2 Fold change, gene MT3170 [9]: −1.633
Counts per million (CPM) WT_HC102A1, gene MT3170 (Rv3085, WT Mtb treated with HC102A, replicate 1): 11.79 CPM
Counts per million (CPM) WT_HC102A2, gene MT3170 (Rv3085, WT Mtb treated with HC102A, replicate 2): 8.619 CPM
Fold change, gene MT3212 [10]: 0.0633
log2 Fold change, gene MT3212 [10]: −3.982
Counts per million (CPM) WT_HC102A1, gene MT3212 (Rv3127, WT Mtb treated with HC102A, replicate 1): 690.1 CPM
Counts per million (CPM) WT_HC102A2, gene MT3212 (Rv3127, WT Mtb treated with HC102A, replicate 2): 898.2 CPM
Fold change, gene MT3216 [11]: 0.05498
log2 Fold change, gene MT3216 [11]: −4.185
Counts per million (CPM) WT_HC102A1, gene MT3216 (Rv3130c, WT Mtb treated with HC102A, replicate 1): 1,395.93 CPM
Counts per million (CPM) WT_HC102A2, gene MT3216 (Rv3130c, WT Mtb treated with HC102A, replicate 2): 1,787.99 CPM
Fold change, gene MT3217 [12]: 0.03013
log2 Fold change, gene MT3217 [12]: −5.053
Counts per million (CPM) WT_HC102A1, gene MT3217 (Rv3131, WT Mtb treated with HC102A, replicate 1): 415.6 CPM
Counts per million (CPM) WT_HC102A2, gene MT3217 (Rv3131, WT Mtb treated with HC102A, replicate 2): 421.7 CPM
Fold change, gene MT3218 [13]: 0.0994
log2 Fold change, gene MT3218 [13]: −3.331
Counts per million (CPM) WT_HC102A1, gene MT3218 (Rv3132c, WT Mtb treated with HC102A, replicate 1): 439 CPM
Counts per million (CPM) WT_HC102A2, gene MT3218 (Rv3132c, WT Mtb treated with HC102A, replicate 2): 364.8 CPM
Fold change, gene MT3219 [14]: 0.07283
log2 Fold change, gene MT3219 [14]: −3.779
Counts per million (CPM) WT_HC102A1, gene MT3219 (Rv3133c, WT Mtb treated with HC102A, replicate 1): 233.8 CPM
Counts per million (CPM) WT_HC102A2, gene MT3219 (Rv3133c, WT Mtb treated with HC102A, replicate 2): 174 CPM
Fold change, gene MT3220 [15]: 0.04505
log2 Fold change, gene MT3220 [15]: −4.472
Counts per million (CPM) WT_HC102A1, gene MT3220 (Rv3134c, WT Mtb treated with HC102A, replicate 1): 264.6 CPM
Counts per million (CPM) WT_HC102A2, gene MT3220 (Rv3134c, WT Mtb treated with HC102A, replicate 2): 171.8 CPM
Fold change, gene MT3947 [16]: 0.2314
log2 Fold change, gene MT3947 [16]: −2.111
Counts per million (CPM) WT_HC102A1, gene MT3947 (Rv3839, WT Mtb treated with HC102A, replicate 1): 25.93 CPM
Counts per million (CPM) WT_HC102A2, gene MT3947 (Rv3839, WT Mtb treated with HC102A, replicate 2): 7.681 CPM
Fold change, gene MT0598 [17]: 0.2421
Fold change, gene MT0600 [17]: 0.1586
Fold change, gene MT1096 [17]: 0.3436
Fold change, gene MT1385 [17]: 0.3712
Fold change, gene MT1775 [17]: 0.2046
Fold change, gene MT1777 [17]: 0.1265
Fold change, gene MT2088 [17]: 0.0678
Fold change, gene MT2090 [17]: 0.1133
Fold change, gene MT3209 [17]: 0.4
Fold change, gene MT3210 [17]: 0.04949
log2 Fold change, gene MT0598 [17]: −2.046
log2 Fold change, gene MT0600 [17]: −2.656
log2 Fold change, gene MT1096 [17]: −1.541
log2 Fold change, gene MT1385 [17]: −1.43
log2 Fold change, gene MT1775 [17]: −2.289
log2 Fold change, gene MT1777 [17]: −2.983
log2 Fold change, gene MT2088 [17]: −3.883
log2 Fold change, gene MT2090 [17]: −3.141
log2 Fold change, gene MT3209 [17]: −1.322
log2 Fold change, gene MT3210 [17]: −4.337
Counts per million (CPM) WT_HC102A1, gene MT0598 [18]: 57.71 CPM
Counts per million (CPM) WT_HC102A1, gene MT0600 [18]: 129.6 CPM
Counts per million (CPM) WT_HC102A1, gene MT1096 [18]: 9.103 CPM
Counts per million (CPM) WT_HC102A1, gene MT1385 [18]: 56.65 CPM
Counts per million (CPM) WT_HC102A1, gene MT1775 [18]: 172.1 CPM
Counts per million (CPM) WT_HC102A1, gene MT1777 [18]: 11.46 CPM
Counts per million (CPM) WT_HC102A1, gene MT2088 [18]: 254.1 CPM
Counts per million (CPM) WT_HC102A1, gene MT2090 [18]: 3,874.46 CPM
Counts per million (CPM) WT_HC102A1, gene MT3209 [18]: 5.689 CPM
Counts per million (CPM) WT_HC102A1, gene MT3210 [18]: 0.5689 CPM
Counts per million (CPM) WT_HC102A2, gene MT0598 [19]: 66.55 CPM
Counts per million (CPM) WT_HC102A2, gene MT0600 [19]: 211.3 CPM
Counts per million (CPM) WT_HC102A2, gene MT1096 [19]: 3.811 CPM
Counts per million (CPM) WT_HC102A2, gene MT1385 [19]: 35.06 CPM
Counts per million (CPM) WT_HC102A2, gene MT1775 [19]: 61.8 CPM
Counts per million (CPM) WT_HC102A2, gene MT1777 [19]: 24.1 CPM
Counts per million (CPM) WT_HC102A2, gene MT2088 [19]: 225.6 CPM
Counts per million (CPM) WT_HC102A2, gene MT2090 [19]: 5,782.55 CPM
Counts per million (CPM) WT_HC102A2, gene MT3209 [19]: 5.394 CPM
Counts per million (CPM) WT_HC102A2, gene MT3210 [19]: 0.1173 CPM
Counts per million (CPM) WT_HC102A1 (gene MT3514 (Rv3406), replicate 1): 494.4 CPM
Counts per million (CPM) WT_HC102A2 (gene MT3514 (Rv3406), replicate 2): 168 CPM
WT DMSO/WT HC102A Fold change (gene MT3514 (Rv3406)): 6.242
log2 Fold change (gene MT3514 (Rv3406)): 2.642
Counts per million (CPM) WT_HC102A1 (gene MT3515 (Rv3407), replicate 1): 191.1 CPM
Counts per million (CPM) WT_HC102A2 (gene MT3515 (Rv3407), replicate 2): 103.1 CPM
WT DMSO/WT HC102A Fold change (gene MT3515 (Rv3407)): 2.831
log2 Fold change (gene MT3515 (Rv3407)): 1.501
